In PubChem BioAssay (NCI):
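How tested: cells in 96-well plates exposed to compound for 48 hours at five concentrations. Abbreviation: GI50, concentration required for 50% inhibition of growth. TGI: concentration producing complete growth inhibition.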

Experiments:
Assay in all cases: NCI anticancer screen, dose series, 48 h
A549 NSCLC = test system: A549 NSCLC
CAKI-1 renal = test system: CAKI-1 renal
HOP-62 NSCLC = test system: HOP-62 NSCLC
HT29 colon = test system: HT29 colon
K-562 leukemia = test system: K-562 leukemia
KM12 colon = test system: KM12 colon
MDA-MB-435 = test system: MDA-MB-435
NCI-H23 lung = test system: NCI-H23 lung
OVCAR-5 ovarian = test system: OVCAR-5 ovarian
OVCAR-8 ovarian = test system: OVCAR-8 ovarian
RPMI-8226 leukemia = test system: RPMI-8226 leukemia
SK-MEL-2 melanoma = test system: SK-MEL-2 melanoma
SK-OV-3 ovarian = test system: SK-OV-3 ovarian
UO-31 renal = test system: UO-31 renal

Row | Structure (SMILES) | TGI (A549 NSCLC) | TGI (CAKI-1 renal) | TGI (HOP-62 NSCLC) | TGI (HT29 colon) | TGI (K-562 leukemia) | TGI (KM12 colon) | TGI (MDA-MB-435) | TGI (NCI-H23 lung) | TGI (OVCAR-5 ovarian) | TGI (OVCAR-8 ovarian) | TGI (RPMI-8226 leukemia) | TGI (SK-MEL-2 melanoma) | TGI (SK-OV-3 ovarian) | TGI (UO-31 renal) | GI50 (K-562 leukemia) | GI50 (KM12 colon) | GI50 (MDA-MB-435) | GI50 (RPMI-8226 leukemia) | GI50 (SK-MEL-2 melanoma) | GI50 (UO-31 renal)
1 | Clc1cc(N/N=C(/c2ccccc2)c2ncccn2)ncn1 | 85.1 µM | 73.4 µM | 59.3 µM | > 100 µM | 51.8 µM | > 100 µM | > 100 µM | 58.3 µM | > 100 µM | 34.6 µM | > 100 µM | 82.6 µM | 35.7 µM | 55.8 µM | – | – | – | – | – | –
2 | O=c1oc2ccccc2c(O)c1C(c1cc(OCc2ccccc2)cc(OCc2ccccc2)c1)c1c(O)c2ccccc2oc1=O | > 56.4 µM | 22.1 µM | 37 µM | 33.5 µM | > 25.4 µM | 14.7 µM | 31.3 µM | 23.1 µM | 34.5 µM | > 44.5 µM | 6.08 µM | 27.3 µM | 20.1 µM | 19.9 µM | – | – | – | – | – | –
3 | N#C/C(=C\NC(=S)Nc1ccc(S(=O)(=O)Nc2ccccn2)cc1)C(N)=O | > 100 µM | > 100 µM | > 100 µM | > 100 µM | > 100 µM | > 100 µM | > 100 µM | > 100 µM | > 100 µM | > 100 µM | > 100 µM | > 100 µM | > 100 µM | > 100 µM | – | – | – | – | – | –
4 | Cc1ccc(-c2cc(N)n(-c3nc4c([nH]3)c(=O)n(C)c(=O)n4C)n2)cc1 | > 100 µM | 13.4 µM | 16.4 µM | > 100 µM | > 100 µM | 38.9 µM | > 100 µM | 28 µM | > 100 µM | 15.3 µM | > 100 µM | 30.8 µM | 16.1 µM | 73.1 µM | – | – | – | – | – | –
5 | COC(=O)C1=C(C(=O)OC)C2OC1C1C2C2(C)C(C)=C(C)C1(C)S2=O (stereo unspecified) | > 55.8 µM | 27 µM | 41.8 µM | > 49.9 µM | > 100 µM | 45.4 µM | 19.4 µM | 25.8 µM | 38.8 µM | > 100 µM | 31 µM | 28 µM | > 100 µM | 17.6 µM | – | – | – | – | – | –
6 | c1cc2nnc1SCCSCCSc1ccc(nn1)SCCSCCS2 | > 100 µM | > 100 µM | > 100 µM | > 100 µM | > 100 µM | > 100 µM | > 100 µM | > 100 µM | > 100 µM | > 100 µM | > 100 µM | > 100 µM | > 100 µM | > 100 µM | – | – | – | – | – | –
7 | CCOC(=O)c1cc2c([N+](=O)[O-])c(NC(C)=O)ccc2s1 | > 100 µM | > 100 µM | > 100 µM | > 100 µM | > 100 µM | > 100 µM | > 100 µM | > 100 µM | > 100 µM | > 100 µM | > 100 µM | > 100 µM | > 100 µM | > 100 µM | – | – | – | – | – | –
8 | Nc1nc2ncc(SCc3ccc(C(=O)NC(CCC(=O)O)C(=O)O)cc3)cc2c(=O)[nH]1 (stereo unspecified) | > 100 µM | > 100 µM | > 100 µM | > 100 µM | > 100 µM | > 100 µM | > 100 µM | > 100 µM | > 100 µM | > 100 µM | > 100 µM | > 100 µM | > 100 µM | > 100 µM | – | – | – | – | – | –
9 | N#CC1=C(N)OC2=C(CSc3ccccc32)C1c1ccc(Br)cc1 (stereo unspecified) | 27.2 µM | 26.4 µM | 32.7 µM | 18.4 µM | 11.3 µM | 44.6 µM | 7.82 µM | 26.4 µM | 32.7 µM | 14.8 µM | 5.52 µM | 23 µM | 27 µM | 26.7 µM | – | – | – | – | – | –
10 | CCCCCCCCCC[C@@H](O)[C@H]1CC[C@H]([C@H]2CC[C@H]([C@H](O)CCCCCCCCCC[C@@H]3CC(CC(C)=O)C(=O)O3)O2)O1 (stereo partly specified) | > 50 µM | > 50 µM | > 50 µM | > 50 µM | > 50 µM | > 50 µM | > 50 µM | > 50 µM | > 50 µM | > 50 µM | > 50 µM | > 50 µM | > 50 µM | > 50 µM | 0.884 µM | 3.34 µM | 1.86 µM | 1.39 µM | 4.06 µM | 1.66 µM
